Data published in patent publication US7196110B2, “N-substituted tricyclic 3-aminopyrazoles as inhibitors for the treatment of cell proliferative disorders” (Janssen Phamaceutica N.V., priority 2002, dated 2007).
Read-outs that look alike come from different tables or passages of the source.

Biological target: T1, PDGF-receptor beta enzyme comprising the tyrosine kinase domain (Homo sapiens, UniProt P09619)
T1 construct: from amino acid 545 to 1106 of GenBank Access NO: AAA36427
Assay: Inhibition of PDGF-receptor kinase activity (cell-free, PLC1 peptide, 33P Flashplate)
Format: biochemical
Details: for inhibition at 10 µM: compound at 10 uM, read-out: Percent Inhibition @ 10 uM
Experimental: PDGF-R kinase activity was assayed by its ability to phosphorylate one of its target proteins, PLCγ, in a cell-free system, in particular, a PLC1 peptide comprising the tyrosine residue where the phosphorylation occurs was used for the assay.
10× Kinase Buffer (500 mM Tris-HCl pH=8, 100 mM MgCl2, 1 mM Na3VO4); 10 mM DTT (final concentration at 1 mM in assay); 10 mM ATP (final concentration at 5 μM in assay); ^33P-γ-ATP (Cat. No.: NEG/602H. 2000-3000 Ci/mmol) purchased from NEN; Purified, soluble, recombinant PDGF-receptor beta enzyme comprising the tyrosine kinase domain (from amino acid 545 to 1106 of GenBank Access NO: AAA36427 ) at 0.4 mg/mL; Enzyme Dilution Buffer (50 mM Tris-HCl pH=8.0, 0.1% BSA); Wash/Stop Buffer (PBS +100 mM EDTA); NEN Streptavidin Flashplates (Cat. No.: SMP-103) which binds to the biotinylated PLC1 peptide but not the PDGF-R enzyme; PLC1 peptide (Biotin-[…]-Amide) at 1 mM in 50 mM Tris-HCL with pH of 8.0.
Reagents were first mixed according the following regimen:
The above reaction mixture was dispensed into each well of a Flashplate at 70 μl/well. To test the effect of a compound on PDGF-R kinase activity, the test compound either in a fixed concentration or in serially diluted concentrations in 100% DMSO was added to appropriate wells at 1 μl/well.
Enzyme PDGF-R was diluted in Enzyme dilution buffer as following:
The kinase reaction was initiated by adding 30 μl of diluted PDGF-R enzyme solution to each well on the Flashplate containing hot ATP and PLC1, except wells of column 12 rows E through H, which were used to calculate the plate background. The Flashplate was swirled to mix and was incubated at 30° C. for 60 minutes. Then, the reaction mixture was discarded and the Flashplate was washed 3 times each with 200 μl Wash/Stop Buffer. Subsequently, each well on the Flashplate was filled with 200 μl of Wash/Stop buffer. The amount of ^33P retained in each well was measured using a Packard TopCount after the plate was sealed with a transparent plate sealer.
The percentage of inhibition of the test compound on PDGF-R kinase activity is defined as […].
In order to test the potency of inhibition of present compounds, an IC50 for an individual compound was measured using the above procedure. As used herein, the IC50 for PDGF-R kinase activity refers to the concentration of an inhibitor at which the activity of the PDGF-R kinase is reduced by one-half as compared with reactions containing no inhibitor.

[1] = PDGF-R kinase activity, read-out: IC50

T1 sequence (P09619 545-1106): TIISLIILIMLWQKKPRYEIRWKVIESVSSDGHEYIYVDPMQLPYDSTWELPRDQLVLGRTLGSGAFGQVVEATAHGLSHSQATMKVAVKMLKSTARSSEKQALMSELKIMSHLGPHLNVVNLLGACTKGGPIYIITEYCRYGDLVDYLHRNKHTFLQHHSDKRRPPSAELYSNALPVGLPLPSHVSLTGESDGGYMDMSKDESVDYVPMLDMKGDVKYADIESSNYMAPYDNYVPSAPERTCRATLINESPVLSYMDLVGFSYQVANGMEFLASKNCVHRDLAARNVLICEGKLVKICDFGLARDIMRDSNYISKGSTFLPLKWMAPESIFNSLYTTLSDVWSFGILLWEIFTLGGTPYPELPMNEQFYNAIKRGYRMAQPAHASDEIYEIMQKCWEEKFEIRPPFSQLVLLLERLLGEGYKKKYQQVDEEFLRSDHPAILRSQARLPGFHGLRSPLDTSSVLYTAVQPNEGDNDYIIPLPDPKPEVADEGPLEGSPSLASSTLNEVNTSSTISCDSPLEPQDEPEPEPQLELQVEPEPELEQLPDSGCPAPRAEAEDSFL

SMILES	inhibition at 10 µM (PDGF-R kinase activity) [%]	IC50 [1] [µM]	IC50 (read-out: IC50 (μM) on PDGF-R kinase activity) [µM]
COc1cc2c(cc1OC)-c1n[nH]c(NCc3ccccc3Cl)c1C2 [Compound 230, (2-Chloro-benzyl)-(6,7-dimethoxy-2,4-dihydro-indeno[1,2-c]pyrazol-3-yl)-amine]	90	0.0019	–
COc1cc2c(cc1OC)-c1n[nH]c(NCc3cc(-c4ccccc4)on3)c1C2 [Compound 455, (6,7-Dimethoxy-2,4-dihydro-indeno[1,2-c]pyrazol-3-yl)-(5-phenyl-isoxazol-3-ylmethyl)-amine]	95	0.153	–
COc1cc2c(cc1OC)-c1n[nH]c(Nc3c(F)cc(F)cc3F)c1C2 [Compound 477, (6,7-Dimethoxy-2,4-dihydro-indeno[1,2-c]pyrazol-3-yl)-(2,4,6-trifluoro-phenyl)-amine]	95	0.229	–
COc1cccc(CNc2[nH]nc3c2Cc2cc(OC)c(OC)cc2-3)c1 [Compound 225, (6,7-Dimethoxy-2,4-dihydro-indeno[1,2-c]pyrazol-3-yl)-(3-methoxy-benzyl)-amine]	90	0.0744	–
COc1cc2c(cc1OC)-c1n[nH]c(Nc3ccc4c(c3)OCO4)c1C2 [Compound 62, Benzo[1,3]dioxol-5-yl-(6,7-dimethoxy-2,4-dihydro-indeno[1,2-c]pyrazol-3-yl)-amine]	85	0.313	–
COc1cc2c(cc1OC)C(c1ccccc1)c1c-2n[nH]c1Nc1cccc(F)c1 (stereo not drawn) [Compound 302, (6,7-Dimethoxy-4-phenyl-2,4-dihydro-indeno[1,2-c]pyrazol-3-yl)-(3-fluoro-phenyl)-amine]	47	–	–
COCCCOc1cc2c(cc1OC)-c1n[nH]c(Nc3ccc(F)c(Cl)c3)c1C2 [Compound 166, (3-Chloro-4-fluoro-phenyl)-[7-methoxy-6-(3-methoxy-propoxy)-2,4-dihydro-indeno[1,2-c]pyrazol-3-yl]-amine]	88	0.085	–
COc1cccc([C@H](C)Nc2[nH]nc3c2Cc2cc(OC)c(OC)cc2-3)c1 (single isomer, unassigned) [Compound 324, (6,7-Dimethoxy-2,4-dihydro-indeno[1,2-c]pyrazol-3-yl)-[1-(3-methoxy-phenyl)-ethyl]-amine]	74.5	1.32	–
CC(C)Oc1cc2c(cc1OC(C)C)C(C)c1c-2n[nH]c1Nc1ccc(F)c(Cl)c1 (stereo not drawn) [Compound 354, (3-Chloro-4-fluoro-phenyl)-(6,7-diisopropoxy-4-methyl-2,4-dihydro-indeno[1,2-c]pyrazol-3-yl)-amine]	62	2.45	–
COc1cc2c(cc1F)Cc1c-2n[nH]c1Nc1cccc(F)c1 [Compound 357, (6-Fluoro-7-methoxy-2,4-dihydro-indeno[1,2-c]pyrazol-3-yl)-(3-fluoro-phenyl)-amine]	98.5	0.00942	–
COc1ccc2c(c1)-c1n[nH]c(Nc3cccnc3)c1C2 [Compound 173, (7-Methoxy-2,4-dihydro-indeno[1,2-c]pyrazol-3-yl)-pyridin-3-yl-amine]	87	0.215	–
CCOc1cc2c(cc1OCCCO)-c1n[nH]c(Nc3cccc(Cl)c3)c1C2 [Compound 367, 3-[3-(3-Chloro-phenylamino)-6-ethoxy-2,4-dihydro-indeno[1,2-c]pyrazol-7-yloxy]-propan-1-ol]	97	0.00814	–
COc1cc2c(cc1OC)-c1c(c(Nc3cccc(F)c3)nn1C(=O)NCCN1CCCC1)C2 [Compound 520, 3-(3-Fluoro-phenylamino)-6,7-dimethoxy-4H-indeno[1,2-c]pyrazole-1-carboxylic acid (2-pyrrolidin-1-yl-ethyl)-amide]	100	0.0653	–
COc1cc2c(cc1OC)-c1n[nH]c(Nc3c(OC)ccnc3OC)c1C2 [Compound 454, (6,7-Dimethoxy-2,4-dihydro-indeno[1,2-c]pyrazol-3-yl)-(2,4-dimethoxy-pyridin-3-yl)-amine]	99	0.258	–
Cc1cccc(CNc2[nH]nc3c2Cc2cc(F)ccc2-3)c1 [Compound 305, (6-Fluoro-2,4-dihydro-indeno[1,2-c]pyrazol-3-yl)-(3-methyl-benzyl)-amine]	87	0.458	–
CC1c2ccccc2-c2n[nH]c(Nc3cccnc3)c21 (stereo not drawn) [Compound 109, (4-Methyl-2,4-dihydro-indeno[1,2-c]pyrazol-3-yl)-pyridin-3-yl-amine]	83	0.537	–
COc1cc2c(cc1OC)-c1n[nH]c(Nc3ccc(Cl)c(Cl)c3)c1C2 [Compound 18, (3,4-Dichloro-phenyl)-(6,7-dimethoxy-2,4-dihydro-indeno[1,2-c]pyrazol-3-yl)-amine]	65	0.23	–
COc1cc2c(cc1OCCCN1CCN(C)CC1)Cc1c-2n[nH]c1Nc1cccc(F)c1 [Compound 216, (3-Fluoro-phenyl)-{7-methoxy-6-[3-(4-methyl-piperazin-1-yl)-propoxy]-2,4-dihydro-indeno[1,2-c]pyrazol-3-yl}-amine]	100	0.0058	–
COc1cc2c(c3nc(C)oc13)CC1C(Nc3cccc(F)c3)=NN=C21 (stereo not drawn) [Compound 605, (3-Fluoro-phenyl)-(4-methoxy-2-methyl-7,9-dihydro-3-oxa-1,6,7-triaza-cyclopenta[b]-as-indacen-8-yl)-amine]	97.5	–	0.0051
COCCOC(=O)n1nc2c(c1Nc1cccc(F)c1)Cc1cc(OC)c(OC)cc1-2 [Compound 437, 3-(3-Fluoro-phenyl-amino)-6,7-dimethoxy-4H-indeno[1,2-c]pyrazole-2-carboxylic acid 2-methoxy-ethyl ester]	83.5	0.291	–
COc1cc2c(cc1OC)-c1c(c(Nc3cccc(F)c3)nn1C(=O)NCCN)C2 [Compound 516, 3-(3-Fluoro-phenylamino)-6,7-dimethoxy-4H-indeno[1,2-c]pyrazole-1-carboxylic acid (2-amino-ethyl)-amide]	68.5	10	–
COc1cc2c(cc1OC)-c1n[nH]c(NCc3cc(Cl)cc(Cl)c3)c1C2 [Compound 271, (3,5-Dichloro-benzyl)-(6,7-dimethoxy-2,4-dihydro-indeno[1,2-c]pyrazol-3-yl)-amine]	54.5	6.99	–
COc1ccc2c(c1)Cc1c-2n[nH]c1Nc1ccc(C(F)(F)F)cc1 [Compound 89, (6-Methoxy-2,4-dihydro-indeno[1,2-c]pyrazol-3-yl)-(4-trifluoromethyl-phenyl)-amine]	88	0.886	–
COc1cc2c(cc1OC)-c1n[nH]c(Nc3ccc(F)c(C(F)(F)F)c3)c1C2 [Compound 212, (6,7-Dimethoxy-2,4-dihydro-indeno[1,2-c]pyrazol-3-yl)-(4-fluoro-3-trifluoromethyl-phenyl)-amine]	84	0.775	–
CCOc1cccc(Nc2[nH]nc3c2C(C)c2cc(OCC)c(OCC)cc2-3)c1 (stereo not drawn) [Compound 504, (6,7-Diethoxy-4-methyl-2,4-dihydro-indeno[1,2-c]pyrazol-3-yl)-(3-ethoxy-phenyl)-amine]	101	0.142	–
CCOC(=O)Cn1nc(Nc2cccc(F)c2)c2c1-c1cc(OC)c(OC)cc1C2 [Compound 511, [3-(3-Fluoro-phenylamino)-6,7-dimethoxy-4H-indeno[1,2-c]pyrazol-1-yl]-acetic acid ethyl ester]	51	12.5	–
COc1cc2c(cc1OC)-c1n[nH]c(NCc3cc(F)ccc3F)c1C2 [Compound 323, (2,5-Difluoro-benzyl)-(6,7-dimethoxy-2,4-dihydro-indeno[1,2-c]pyrazol-3-yl)-amine]	60.5	8.71	–
COCCCOc1ccc2c(c1)Cc1c-2n[nH]c1Nc1ccc(F)cc1 [Compound 136, (4-Fluoro-phenyl)-[6-(3-methoxy-propoxy)-2,4-dihydro-indeno[1,2-c]pyrazol-3-yl]-amine]	64.5	1.33	–
Cc1cccc2c1Cc1c-2n[nH]c1Nc1ccccc1 [Compound 23, (5-Methyl-2,4-dihydro-indeno[1,2-c]pyrazol-3-yl)-phenyl-amine]	87	1.94	–
